According to article PMC12606464, “Investigating NFE2L1 activators for targeted protein aggregate clearance: a follow-up study” (RSC Medicinal Chemistry, 2025):

System: EGFP-HttQ74 aggregates in U2OS cells
Experiment: Analysis of polyQ (EGFP-HttQ74) aggregation in U2OS cells
Format: cell-based
Settings: U2OS EGFP-HttQ74, 5 μM, 24 h, with BOC-D-FMK
Protocol: Considering these earlier findings, we assessed the impact of the most promising compound, RUN-89, on protein aggregate formation in cells. U2OS cells were transfected with the EGFP-HttQ74 plasmid, a model for polyglutamine (polyQ) aggregation, and then treated with the caspase inhibitor BOC-D-FMK in combination with either 5 μM RUN compounds or a vehicle control for 24 hours prior to the microscopy analysis (Fig. 4). […] A decrease in aggregate size leads to an increase in their number, as the formation of large aggregates is prevented. Instead, multiple smaller aggregates are formed, which, according to our assumption, could be more easily degraded (Fig. 4B). […] Representative fluorescence microscopy images of U2OS cells expressing EGFP-HttQ74 treated with RUN-89 are shown in Fig. 4D, highlighting the difference between RUN-89-treated and vehicle-treated cells.
U2OS cells expressing EGFP-HttQ74 were treated for 24 hours with either the caspase inhibitor BOC-D-FMK, 5 μM RUN compounds, or DMSO (negative control). In total, cells from three independent experiments were analyzed (n = 3) and from every well 10 areas were screened. […] The volume value was measured in voxels. […] (D) Fluorescence microscopy images represent U2OS cells overexpressing EGFP-HttQ74 after treatment with RUN-89 and DMSO for 24 h. […]
instructions. […] Data were expressed as a fold change relative to the corresponding DMSO control. […]

## COc1ccc(/C=C2\CC(NC(=O)C3CCCC3)C/C(=C\c3ccc(OC)c(OC)c3)C2=O)cc1OC (stereo not shown) [RUN-89]
  Number of aggregates per cell: 4.545
